Results: the supplement of paper PMC10307832

Legend:
Assay in all cases: relative viability (nuclei count vs DMSO), 5 days (fraction); higher = more cells survive
[1] = tested on: NCI-H1623
In short: (§1)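 Lung cancer cell lines were pin-tool dosed in 1536-well plates on the day after seeding, with either a lone drug or a fixed anchor-drug dose plus five library-drug doses (not always all listed) in √10 steps. Nuclei were counted on 4× images after 5 days. Relative viability is the ratio of treated-well to vehicle-well nuclei counts, with each value a median of duplicate plates.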

[2] = tested on: NCI-H2342
In short: as §1

[3] = tested on: NCI-H522
In short: as §1

[4] = tested on: NCI-H2009
In short: as §1

[5] = tested on: NCI-H661
In short: as §1

[6] = tested on: NCI-H460
In short: as §1

[7] = tested on: A549
In short: as §1

[8] = tested on: HCC-78
In short: as §1

`O=c1cc(N2CCOCC2)oc2c(-c3cccc4c3sc3ccccc34)cccc12` + CCNC(=O)c1noc(-c2cc(C(C)C)c(O)cc2O)c1-c1ccc(CN2CCOCC2)cc1 [Luminespib] (partner 0.01 µM) gave a relative viability ([1]; first compound 0.01 µM) of 0.383, a relative viability ([1]; first compound 0.03162 µM) of 0.521 and a relative viability ([1]; first compound 0.1 µM) of 0.495. It also gave a relative viability ([1]; first compound 0.3162 µM) of 0.475, a relative viability ([1]; first compound 1 µM) of 0.409 and a relative viability ([2]; first compound 0.01 µM) of 0.667. For the same molecule, the relative viability ([2]; first compound 0.03162 µM) was 0.58, the relative viability ([2]; first compound 0.1 µM) was 0.696 and the relative viability ([2]; first compound 0.3162 µM) was 0.586. The relative viability ([2]; first compound 1 µM) was 0.742, the relative viability ([3]; first compound 0.01 µM) was 1.23 and the relative viability ([3]; first compound 0.03162 µM) was 1.37. The relative viability ([3]; first compound 0.1 µM) was 0.915, the relative viability ([3]; first compound 0.3162 µM) was 1.06 and the relative viability ([3]; first compound 1 µM) was 1.14. It also gave a relative viability ([4]; first compound 0.01 µM) of 0.931, a relative viability ([4]; first compound 0.03162 µM) of 0.899 and a relative viability ([4]; first compound 0.1 µM) of 0.995. It also gave a relative viability ([4]; first compound 0.3162 µM) of 0.962, a relative viability ([4]; first compound 1 µM) of 0.97 and a relative viability ([5]; first compound 0.01 µM) of 0.86. For the same molecule, the relative viability ([5]; first compound 0.03162 µM) was 0.952, the relative viability ([5]; first compound 0.1 µM) was 0.948 and the relative viability ([5]; first compound 0.3162 µM) was 0.943. It also gave a relative viability ([5]; first compound 1 µM) of 0.888, a relative viability ([6]; first compound 0.01 µM) of 0.037 and a relative viability ([6]; first compound 0.03162 µM) of 0.0402. The relative viability ([6]; first compound 0.1 µM) was 0.0368, the relative viability ([6]; first compound 0.3162 µM) was 0.035 and the relative viability ([6]; first compound 1 µM) was 0.0452.

In the case of `O=c1cc(-c2cccc3c2Sc2ccccc2S3)oc(N2CCOCC2)c1` + N=C(N)NC(=N)NCCc1ccccc1 [Phenformin] (partner 250 µM), the relative viability ([1]; first compound 0.08 µM) is reported as 0.603, the relative viability ([1]; first compound 0.253 µM) is reported as 0.68 and the relative viability ([1]; first compound 0.8 µM) is reported as 0.593. For the same molecule, the relative viability ([1]; first compound 2.53 µM) was 0.535, the relative viability ([1]; first compound 8 µM) was 0.576 and the relative viability ([7]; first compound 0.08 µM) was 0.202. For the same molecule, the relative viability ([7]; first compound 0.253 µM) was 0.097, the relative viability ([7]; first compound 0.8 µM) was 0.315 and the relative viability ([7]; first compound 2.53 µM) was 0.129. For the same molecule, the relative viability ([7]; first compound 8 µM) was 0.28, the relative viability ([8]; first compound 0.08 µM) was 0.62 and the relative viability ([8]; first compound 0.253 µM) was 0.769. For the same molecule, the relative viability ([8]; first compound 0.8 µM) was 0.638, the relative viability ([8]; first compound 2.53 µM) was 0.555 and the relative viability ([8]; first compound 8 µM) was 0.667. For the same molecule, the relative viability ([2]; first compound 0.08 µM) was 0.526, the relative viability ([2]; first compound 0.253 µM) was 0.62 and the relative viability ([2]; first compound 0.8 µM) was 0.542. The relative viability ([2]; first compound 2.53 µM) was 0.557, the relative viability ([2]; first compound 8 µM) was 0.608 and the relative viability ([3]; first compound 0.08 µM) was 0.56. The relative viability ([3]; first compound 0.253 µM) was 0.689, the relative viability ([3]; first compound 0.8 µM) was 0.622 and the relative viability ([3]; first compound 2.53 µM) was 0.556. It also gave a relative viability ([3]; first compound 8 µM) of 0.67, a relative viability ([4]; first compound 0.08 µM) of 0.481 and a relative viability ([4]; first compound 0.253 µM) of 0.545. It also gave a relative viability ([4]; first compound 0.8 µM) of 0.522, a relative viability ([4]; first compound 2.53 µM) of 0.445 and a relative viability ([4]; first compound 8 µM) of 0.446. The relative viability ([5]; first compound 0.08 µM) was 0.269, the relative viability ([5]; first compound 0.253 µM) was 0.26 and the relative viability ([5]; first compound 0.8 µM) was 0.271. The relative viability ([5]; first compound 2.53 µM) was 0.267, the relative viability ([5]; first compound 8 µM) was 0.259 and the relative viability ([6]; first compound 0.08 µM) was 0.535. For the same molecule, the relative viability ([6]; first compound 0.253 µM) was 0.549, the relative viability ([6]; first compound 0.8 µM) was 0.571 and the relative viability ([6]; first compound 2.53 µM) was 0.525. The relative viability ([6]; first compound 8 µM) was 0.531.

In the case of `O=c1cc(N2CCOCC2)oc2c(-c3cccc4c3sc3ccccc34)cccc12` + Cc1nc(Nc2ncc(C(=O)Nc3c(C)cccc3Cl)s2)cc(N2CCN(CCO)CC2)n1 [Dasatinib] (partner 0.075 µM), the relative viability ([1]; first compound 0.01 µM) is reported as 0.456, the relative viability ([1]; first compound 0.03162 µM) is reported as 0.517 and the relative viability ([1]; first compound 0.1 µM) is reported as 0.402. It also gave a relative viability ([1]; first compound 0.3162 µM) of 0.5, a relative viability ([1]; first compound 1 µM) of 0.438 and a relative viability ([8]; first compound 0.01 µM) of 0.353. For the same molecule, the relative viability ([8]; first compound 0.03162 µM) was 0.363, the relative viability ([8]; first compound 0.1 µM) was 0.275 and the relative viability ([8]; first compound 0.3162 µM) was 0.292. For the same molecule, the relative viability ([8]; first compound 1 µM) was 0.32, the relative viability ([2]; first compound 0.01 µM) was 0.352 and the relative viability ([2]; first compound 0.03162 µM) was 0.307. It also gave a relative viability ([2]; first compound 0.1 µM) of 0.332, a relative viability ([2]; first compound 0.3162 µM) of 0.322 and a relative viability ([2]; first compound 1 µM) of 0.325. It also gave a relative viability ([3]; first compound 0.01 µM) of 1.01, a relative viability ([3]; first compound 0.03162 µM) of 0.915 and a relative viability ([3]; first compound 0.1 µM) of 0.797. The relative viability ([3]; first compound 0.3162 µM) was 0.859, the relative viability ([3]; first compound 1 µM) was 0.745 and the relative viability ([4]; first compound 0.01 µM) was 0.317. It also gave a relative viability ([4]; first compound 0.03162 µM) of 0.268, a relative viability ([4]; first compound 0.1 µM) of 0.303 and a relative viability ([4]; first compound 0.3162 µM) of 0.277. It also gave a relative viability ([4]; first compound 1 µM) of 0.256, a relative viability ([5]; first compound 0.01 µM) of 0.764 and a relative viability ([5]; first compound 0.03162 µM) of 0.869. It also gave a relative viability ([5]; first compound 0.1 µM) of 0.889, a relative viability ([5]; first compound 0.3162 µM) of 0.993 and a relative viability ([5]; first compound 1 µM) of 0.842. It also gave a relative viability ([6]; first compound 0.01 µM) of 0.558, a relative viability ([6]; first compound 0.03162 µM) of 0.54 and a relative viability ([6]; first compound 0.1 µM) of 0.516. It also gave a relative viability ([6]; first compound 0.3162 µM) of 0.512 and a relative viability ([6]; first compound 1 µM) of 0.452.
